The values below come from publication PMC9905731, “PIN1 and PIN4 inhibition via parvulin impeders Juglone, PiB, ATRA, 6,7,4′-THIF, KPT6566, and EGCG thwarted hepatitis B virus replication” (Frontiers in Microbiology, 2023).

What all share (type): cell-based
Data set [1] can be described thus: MTT cell cytotoxicity assay. Conditions: human, Huh7, HepAD38, HepG2, HepG2.2.15 cells, cell line not stated, read-out: 50% cytotoxic concentration (CC50). The procedure:
Since PIN1 and PIN4 were highly expressed in HCC cells, we speculated that the inhibition of parvulins via Juglone, PiB, ATRA, 6,7,4′-THIF, KPT6566, and EGCG might affect HBV replication (Figure 2A). The optimum dosage was determined in several HCC cell lines. Compared to mock or solvent-treated 10, 20, 30, 50, or 100 μM, drug-treated cell viabilities were determined by the MTT assay in Huh7, HepAD38, HepG2, and HepG2.2.15 cells (Figure 2B). The data from triplicate experiments were used to examine 50% cytotoxic concentration (CC50) of Juglone, PiB, ATRA, 6,7,4′-THIF, KPT6566, and EGCG via the GraphPad Prism software (Figure 2C). The CC50 values for Juglone and PiB were 30 and 40 μM, respectively. […] However, KPT6566 and EGCG depicted 45 and 80 μM as CC50 values, respectively. We optimized the effects of Juglone and PiB parvulin inhibitors in diverse HBV replicating HCC cell lines at 20 μM concentration. In addition, 30 μM concentrations were used to determine the effects of ATRA, 6,7,4′-THIF, and KPT6566 on HBV replication. While a 40 μM concentration of EGCG was optimized for determining the effects on HBV replication in multiple HCC cell lines.
Figure 2 MTT assay to measure the cytotoxicity of parvulin inhibitors (Juglone, PiB, ATRA, 6,7,4′-THIF, KPT6566, and EGCG). (A) The chemical structures of parvulin inhibitors including Juglone, PiB, ATRA, 6,7,4′-THIF, KPT6566, and EGCG are shown. (B) Huh7, HepAD38, HepG2, and HepG2.2.15 cells were exposed to varying concentrations (10 μM, 20 μM, 30 μM, 50 μM, and 100 μM) of inhibitors Juglone, PiB, ATRA, 6,7,4′-THIF, KPT6566, and EGCG for 48 h and values were determined via MTT assay. (C) The concentrations of Juglone, PiB, ATRA, 6,7,4′-THIF, KPT6566, and EGCG at which cell viability was reduced to 50% (CC50) to that of the control (cells treated by the solvent) were determined. TEXT PRINTED IN THE PICTURE: (C) Juglone: CC50: 30 | (C) PiB: CC50: 40 | (C) ATRA: CC50: 45 | (C) 6,7,4 THIF: CC50: 50 | (C) KPT6566: CC50: 45 | (C) EGCG: CC50: 80 DOUBTS OF THE COPYIST ABOUT THIS PICTURE: All CC50 labels in panel C are printed small and blurred, and no unit is printed with them / Juglone, CC50: 30 or 50 / ATRA, CC50: 45 or 46 / 6,7,4 THIF, CC50: 50 or 60 / KPT6566, CC50: 45 or 46 / EGCG, CC50: 80 or 30, first digit partly overlapped by an error bar
The cytotoxic effects of parvulin inhibitors (Juglone, PiB, ATRA, 6,7,4′-THIF, KPT6566, and EGCG) via MTT (3-[4,5-dimethylththiazol-2-yl]-2,5-diphenyltetrazolium bromide) assay were determined in Huh7, HepAD38, HepG2, and HepG2.2.15 cell lines. The cells were grown in 96-well microplates and incubated with serial dilutions of Juglone, PiB, ATRA, 6,7,4′-THIF, KPT6566, or EGCG for 48 h at 37°C. The cellular viabilities were examined after replacing the culture medium with 100 μl of MTT in DMEM. After 3 h, 100 μl of DMSO was added to dissolve the formazan of MTT. The absorbance value was measured at 570 nm via plate reader. Afterward, the concentrations of Juglone, PiB, ATRA, 6,7,4′-THIF, KPT6566, and EGCG at which cell viability was reduced to 50% (CC50) to that of the control were determined.
In general terms: Tetrazolium assays rely on reduction of a dye to a coloured formazan, in cell work by metabolically active cells.

Another data set has as its target T1, PIN1 (Homo sapiens, UniProt Q13526).
T1 construct: Since the endogenous PIN1 and PIN4 levels remained higher in HBV replicating and non-replicating HCC-derived cell lines; endogenous in cells; host or cells: Huh7, HepAD38, HepG2, HepG2.2.15 (human HCC cell lines)
Put plainly: PIN1 expression by immunoblotting in HCC cells. The conditions noted are these: 30 μM ATRA, 72 h. A general note: In western blotting, separated proteins are transferred to a membrane and probed.

For a further data set, the target named is PIN4 (Homo sapiens, UniProt Q9Y237). Put plainly: PIN4 expression by immunoblotting in HCC cells. The conditions noted are these: 30 μM ATRA, 72 h.
Sequence of PIN4 (Q9Y237 whole entry): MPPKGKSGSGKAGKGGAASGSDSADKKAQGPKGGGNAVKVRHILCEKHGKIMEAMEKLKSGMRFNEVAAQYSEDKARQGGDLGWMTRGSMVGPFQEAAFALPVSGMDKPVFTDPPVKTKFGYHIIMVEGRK

Structures are written as SMILES.

T1 sequence (Q13526 whole entry): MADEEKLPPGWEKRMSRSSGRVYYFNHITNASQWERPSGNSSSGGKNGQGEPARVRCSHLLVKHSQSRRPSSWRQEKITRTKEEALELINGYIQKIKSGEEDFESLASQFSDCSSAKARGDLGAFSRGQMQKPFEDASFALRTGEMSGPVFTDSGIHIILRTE

Regarding `CC1=C(/C=C/C(C)=C/C=C/C(C)=C/C(=O)O)C(C)(C)CCC1` [ATRA, All-trans-retinoic acid], the CC50 at 48 h in data set [1] worked out at 45 µM. The “expression level of PIN1” value on PIN1 was “reduced”. The “expression level of PIN4” value on PIN4 is reported as “reduced”.

On to `O=C(O[C@@H]1Cc2c(O)cc(O)cc2O[C@@H]1c1cc(O)c(O)c(O)c1)c1cc(O)c(O)c(O)c1` [EGCG, Epigallocatechin gallate], for which the CC50 at 48 h in data set [1] was 80 µM.

In the case of `O=C1C=CC(=O)c2c(O)cccc21` [Juglone, 5-hydroxyl-1,4-naphthoquinone], the CC50 at 48 h in data set [1] was determined as 30 µM.

In the case of `O=c1c(-c2ccc(O)cc2)coc2cc(O)c(O)cc12` [6,7,4′-THIF, 6,7-dihydroxy-3-(4-hydroxyphenyl)-4H-chromen-4-one], the CC50 at 48 h in data set [1] amounted to 50 µM.

With `CC(C)(C)c1ccc(S(=O)(=O)N=C2C=C(SCC(=O)O)C(=O)c3ccccc32)cc1` [KPT6566, 2-[[4-[[[4-(1,1-dimethylethyl)phenyl]sulfonyl]imino]-1,4-dihydro-1-oxo-2-naphthalenyl]thio] acetic acid], the CC50 at 48 h in data set [1] came out at 45 µM.

As for `CCOC(=O)CN1C(=O)c2ccc3c4c(ccc(c24)C1=O)C(=O)N(CC(=O)OCC)C3=O` [PiB, 1,3,6,8-tetrahydro-1,3,6,8-tetraoxo-benzo [lmn][3,8] phenanthroline-2,7-diacetic acid, 2,7-diethyl ester], the CC50 at 48 h in data set [1] was 40 µM.
